The results in this text go back to patent US10111846B2, “S isomers of alpha-methyl-hydrocinnamic acid for the treatment of blood disorders” (priority 2009, dated 2018).

In general, bioavailability refers to dose-corrected exposure relative to a reference, in per cent.

“Also recorded” adds a separate entry of the source.

The test system of series [1] is erythropoiesis and myelopoiesis. The experiment in a line: In vitro cell culture testing of stimulation of erythropoiesis and myelopoiesis. The class given is cell-based. As to conditions: for concentration giving stimulation of erythropoiesis and myelopoiesis: cell culture, data not shown. An excerpt:
ST7S is shown to stimulate myelopoiesis and erythropoiesis in animal subjects. […] Thus, the employed concentration of S isomer is about 4-fold lower than that of racemate to achieve similar degrees of erythropoiesis and myelopoiesis.

Series [2] relates to erythropoiesis. As to the kind of experiment: ST7 once daily to mice for 5 days: erythropoiesis (hematocrit, hemoglobin). The class given is in vivo. As to conditions: once daily for 5 days, by day 14.
Series [3] deals with erythropoiesis. As to the kind of experiment: Oral ST7 in baboon with daily phlebotomy, chronic anemia. The class given is in vivo. Particulars: oral 50 mg/kg per day, 5 days a week over 3 weeks.
In series [4] the test system is WBC and neutrophil counts. As to the kind of experiment: WBC and absolute neutrophil counts (ANC) in baboons. The class given is in vivo, baboon. How it is done: FIG. 12 is a graph showing increase in both white blood cells (WBC) and Absolute neutrophil counts (ANC) after oral administration of 200 mg/kg ST7S on days 0-4 results in a 3-fold stimulation in WBC and neutrophil counts over 6 days.
In particular, oral administration of ST7 to a baboon results in a 3-fold stimulation of WBC count over 6 days (FIG. 2A).

Series [5] has as its system human hematopoietic cultures. As to the kind of experiment: CFU-GM colony formation in human hematopoietic cultures. The class given is cell-based.
Series [6] has as its system platelet counts. The experiment in a line: Platelet counts in nonhuman primates. The class given is in vivo, baboon. Particulars: IV to 3 baboons on days 1-3 and 7-9. How it is done:
ST7 was administered via IV to baboons on days 1-3 and 7-9. ST7 works as similarly in all three baboons (Baboon numbers: GG24, FM45, FM83).
Administration of ST7 also increases platelet levels after administration to non-human primates.

Series [7] concerns Chemotherapy-Induced Neutropenia Murine Model. The experiment in a line: Chemotherapy (5-FU)-induced neutropenia murine model. The class given is in vivo, mice. How it is done: Mice were treated with 5-FU on day 0, then received daily SC injection of saline or ST7 or G-CSF beginning on Day 1 and absolute neutrophil counts (ANC) were assessed on days 0, 9 and 13.
Additionally, administration of ST7 also enhances Myeloid Recovery in a Chemotherapy-Induced Neutropenia Murine Model. Mice were treated with 5-FU on day 0, then received daily SC injection of saline (control) or ST7 or G-CSF beginning on Day 1 and the absolute neutrophil counts (ANC) were assessed on days 0, 9 and 13.

For series [8], the system named is Mcl-1L to Mcl-1S. The experiment in a line: Western blot of Mcl-1L to Mcl-1S protein expression (anti-apoptotic proteins). The class given is cell-based. Particulars: after exposure. The source says:
(§1) FIG. 7A is a histogram showing hemokines SCFADs induce anti-apoptotic proteins. FIG. 7B is a western blot of Mcl-1L to Mcl-1S protein expression (with β-actin as a protein loading control).
(In general: In western blotting, separated proteins are transferred to a membrane and probed.)

In series [9] the test system is cultured normal human neutophils. The experiment in a line: Human neutrophil survival in vitro. The class given is cell-based. As to conditions: 200 μM, 50 μM.
Source text: as §1

Series [10] in a line: PK profiles after oral and IV administration in baboons. The class given is in vivo. On the procedure: (§2) FIGS. 8A-8B show […] and oral bioavailability of ST7. […] Target does equivalent to 20 mg/kg in an adult human.
(§3) Accordingly, ST7 is suitable for once/day dosing.

The nature of series [11]: Oral administration to a normal human subject, plasma levels. The class given is in vivo. On the procedure:
as §2, §3

For series [12], the system named is sub-lethally irradiated mouse model. As to the kind of experiment: Sub-lethally irradiated (6 Gy) mouse model, ANC. The class given is in vivo, mice. More on the design: platelet level, level below which decrease was prevented at any timepoint / ANC, level below which decline was prevented at any time: unit not given here. On the procedure:
FIG. 9 is a graph of absolute neutrophil count (ANC) response to NaST7 (500 mg/kg IP and 300 mg/kg IP) after sub-lethal does of irradiation where mice were exposed to 6 Gy irradiation on day 0 and daily ST7 (enantiomer) was administered at two doses, beginning day 1.
(§4) In particular, absolute neutrophil count (ANC) increased after administration of NaST7 (500 mg/kg IP and 300 mg/kg IP) after sub-lethal does of irradiation (e.g., exposure to 6 Gy irradiation on day 0).

In series [13] the test system is bone marrow. As to the kind of experiment: Lethally-irradiated murine model, bone marrow histology. The class given is in vivo, mice. Particulars: LD90 irradiation day 0, daily SC from day 1, day 15. On the procedure: Mice were irradiated at LD90 on day 0, and received daily SC injections of ST7-S or saline (control) starting Day 1. Bone marrow was examined on Day 15.
as §4

[14] abbreviates: oral 200 mg/kg on days 0-4, over 6 days.

For `CC(Cc1ccccc1)C(=O)O` (racemic) [ST7, α-methyl-hydrocinnamic acid], in [1], the “concentration giving stimulation of erythropoiesis and myelopoiesis” value was “about 200 μM”. The hematocrit entry in series [2] is listed as “significant increase in hematocrit”. Moreover, in series [3], the “absolute increase in hematocrit level” value was 7 percentage points; the “increase in hematocrit level, % of baseline” value stood at 28%; the “increase in total hemoglobin level” value was determined as 2.5 g/dL. In addition, the “stimulation of WBC count” value in series [4] (baboon, oral, over 6 days) is reported as 3 fold. Further, the CFU-GM colony formation result in series [5] was “increases CFU-GM Colony formation”. The platelet count entry in [6] was “stimulation of platelet count in all animals; also recorded: increased platelet counts”. Further, in [7] (5-FU day 0, daily SC injection from day 1, day 13), the “recovery of ANC” value was “accelerated recovery of ANC by day 13 as efficiently as G-CSF”. Further, the “increase in NE (K/μL) as compared to saline control” value in [7] (day 13) is listed as 7-10 fold. Further, in series [8], the “ratios of Mcl-1L to Mcl-1S” value is listed as “shifted towards anti-apoptotic actions”. Besides, the apoptosis of neutrophils result in series [9] is reported as “suppresses apoptosis”. Moreover, the bioavailability in series [10] (baboon, in vivo, po, non-human primates, 113 mg/kg) was greater than 90%. In addition, the “PK profiles oral versus IV” value in [10] (non-human primates) is reported as “nearly identical PK profiles”. The “drug levels relative to target dose” value in series [11] (normal human subject, oral 1 or 1.4 grams) is “persist above the target dose for several hours”. In addition, the “ANC, level below which decline was prevented at any time” value in [12] (500 mg/kg IP and 300 mg/kg IP daily from day 1, 6 Gy on day 0) was no less than 200. Further, the “platelet level, level below which decrease was prevented at any timepoint” value in series [12] (500 mg/kg IP and 300 mg/kg IP daily from day 1, sub-lethal irradiation) was no less than 200.
As to `CC(Cc1ccccc1)C(=O)[O-].[Na+]` (stereo not drawn) [ST7S, S-isomer of alpha-methyl-hydrocinnamic acid], in series [1], the “fold lower concentration of S isomer than racemate for similar degrees of erythropoiesis and myelopoiesis” value was “about 4 fold”; the “concentration giving stimulation of erythropoiesis and myelopoiesis” value is given as “about 50 μM”. For the same compound, in [4] (baboons, 100 mg/kg at day 0-2 and day 7-9), the “neutrophil counts (ANC), short-term administration” value is listed as “increases neutrophil counts”. In addition, the “neutrophil counts (ANC), long term” value in series [4] (baboons, 47 days, administered at 1-5 days and 34-38 days) is reported as “increases neutrophil counts; also recorded: Neutrophil counts increase”. Moreover, in series [4] (setting [14]), the “stimulation in WBC” value is listed as 3 fold and the “stimulation in neutrophil counts” value is 3 fold. In [10] (about 113 mg/kg administered orally, FIG. 8A), the “time available after administration” value was “at least 4 hours”. In addition, the “time available after administration” value in series [11] (about 1.4 g administered orally, FIG. 8B) is listed as “at least 14 hours”. Also, the bone marrow histology entry in series [13] is “stimulates bone marrow recovery; also recorded: normocellular marrows”.
